The test system of one assay is Drosophila melanogaster. As to the kind of experiment: Cocaine-induced startle response and seizure activity in the Drosophila model. Format: in vivo. As for the experimental part:
The percent time out of 45 seconds that each fly spent moving following a 42 cm drop was measured. Male flies exposed to cocaine spent less time moving than flies exposed to untreated food (p=2.13×10^−12). […] Error bars represent standard error.
Drosophila provides an advantageous model system for studies on cocaine consumption. […] In addition, flies develop sensitization to repeated intermittent exposure to cocaine. Startle behavior and the prevalence of seizure activity was measured in male and female flies. Measurements were taken following acute consumption of solid food, solid food supplemented with cocaine, or solid food supplemented with cocaine and ibrutinib. Male flies exposed to cocaine spent less time moving after being subjected to a mechanical startle (FIG. 3A). This is likely due to the occurrence of cocaine-induced seizures, which were scored as stationary periods.

Another assay relates to mice. To be noted: cited from earlier work.

SMILES strings stand for the structures. Entries after “also recorded” stand apart in the source; their conditions may differ.

As to `C=CC(=O)N1CCC[C@@H](n2nc(-c3ccc(Oc4ccccc4)cc3)c3c(N)ncnc32)C1` [ibrutinib, (R)-1-(3-(4-amino-3-(4-phenoxyphenyl)-1H-pyrazolo[3,4-d]pyrimidin-1-yl)piperidin-1-yl)prop-2-en-1-one], the “prevalence of cocaine-induced seizures during startle assay, female flies” value in the assay with Drosophila melanogaster (female flies, cocaine and ibrutinib vs cocaine only, did not reach statistical significance) is “Fewer cocaine-induced seizures”. Moreover, the “percent time spent moving after mechanical startle (startle response)” value with Drosophila melanogaster (male and female flies, food with cocaine and ibrutinib vs cocaine only, 45 seconds after 42 cm drop, FIG. 3A) is “increase in the percent of time spent moving; also recorded: spent more time moving than flies that only consumed cocaine”. In addition, the “prevalence of cocaine-induced seizures during startle assay, male flies” value with Drosophila melanogaster (male flies, cocaine and ibrutinib vs cocaine only, FIG. 3B) is “significant decrease in the prevalence of seizures”.

For the compound `CC1=C(O)C(=O)[C@@H]2O[C@@H]2C1=O` [terreic acid], the binge drinking result in the assay on mice is given as “reduced binge drinking in mice”.

The values are drawn from US20240024325A1, “Methods of Managing Cocaine or Other Drug Addictions” (Emory University, priority 2020, published 2024).
